According to patent US12286439B2, “Inhibitors of ERK nuclear translocation” (Yeda Research and Development Co. Ltd., priority 2018, dated 2025):

Legend:
A2185 and A2352 cells = assay: Viability assay (methylene blue), two BRAF melanoma cells; format: cell-based; conditions: 3 μM, 72 hours, 1% FCS
Experimental: FIGS. 10A, 10B and 10C present data from screening the 20 analogs of Compound Z2 (“C-compounds”) showing three particularly active anti-proliferative compounds. […] A2185 and A2352 cells were grown in 1% FCS containing DMSO (0.1%), EPE peptide, Compound Z56, Compound Z2 or C-compounds (10 μM), for 72 hours. Compounds were categorized according to activity: (1) active, below 40%; (2) moderate activity, below 80%; (3) not active, above 80%. […] A2185 and A2352 cells were grown in 1% FCS containing DMSO (0.1%), EPE peptide (10 μM), compounds Z56, Z2 or selected C-compounds (3 μM), for 72 hours. Empty squares/circles represent individual data points of proliferation. Full squares/circles indicate average proliferation of 2 independent experiments in triplicate±SE. Bold horizontal line defines arbitrary activity threshold of activity below 40%. FIG. 10C presents dose response curves of active C-compounds compounds. A2185 and A2352 were grown in 1% FCS media containing DMSO (0.1%), EPE peptide, Z56, Z2 (10 μM) or compounds C17, C22 and C23 (0.1-10 μM), for 72 hours. […] Cell viability was measured by staining with methylene blue. Data presented as percentage of DMSO control. Bar graphs represent average of 2 independent experiments done in triplicates ±SE.
FIG. 13 presents a graph showing the effect of analogs of Compound C17 (“D-compounds”) on cell viability at a concentration of 10 μM. A2185 and A2352 cells were grown in 1% FCS media containing DMSO (0.1%) EPE peptide (10 μM), Compounds Z56, Z2, C17 (10 μM) as controls, and D-Compounds (10 μM), for 72 hours. Viable cells were measured by staining with methylene blue. Bar graphs represent average of 2 independent experiments done in triplicates. Data presented as percentage of DMSO proliferation ±standard error.
FIG. 14 presents a graph showing the effect of analogs of Compound C17 (“D-compounds”) on cell viability at a concentration of 1 μM. A2185 and A2352 cells were grown in 1% FCS media containing DMSO (0.1%), EPE peptide (10 μM), Compounds Z56, Z2 and C17 (1 and 10 μM) as controls, and D-compounds (1 μM), for 72 hours. Viable cells were measured by staining with methylene blue. Bar graphs represent average of 2 independent experiments done in triplicates. Data presented as percentage of DMSO proliferation ±standard error.
Cells were seeded at low confluence into 24, 48 or 96-well plates in complete medium. After 24 hours, medium was replaced by 1% FCS (fetal calf serum) containing appropriate treatments. Fresh medium containing the same agents was replaced every day. After 72 or 96 hours of treatment, cells were fixed with 4% formaldehyde overnight at 23° C., washed once with 0.1 M borate buffer (pH 8.5) for 10 minutes, and stained with of 1% methylene blue in 0.1 M borate buffer (pH 8.5) for 30 minutes. Excess stain was washed out with distilled water. Color was extracted by adding 0.1 M HCl (3 hours, 23° C.), and absorbance measured at 595 nm in an ELISA reader. For time course experiments, attached cells were fixed and measured at 0, 24, 48, 72 and 96 hours. For dose-response experiments, cells were treated with indicated concentrations of reagent, fixed and stained after 72 hours as above.
The ability of the selected compounds to reduce cell viability of two BRAF melanoma cells (A2185 and A2352) was evaluated. Initially, all compounds were assayed at a relatively high concentration of 10 μM.

[1] = system: ERK1/2 nuclear translocation; assay: Determination of ERK1/2 localization by fluorescence microscopy after TPA stimulation; format: cell-based; conditions: 10 μM, 2 hours, TPA 100 nM, 15 minutes
Summary of the method: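 HeLa, A2185 and A2352 melanoma cells treated with compounds for 2 h around TPA stimulation, then fixed (4% PFA), permeabilized and stained with anti-ERK antibodies, fluorescent secondaries and DAPI. Nuclear ERK1/2 localization scored by fluorescence microscopy (×40).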

O=C(OC1C=CS(=O)(=O)C1)c1ccccc1 (stereo not drawn) [Compound Z2]
cell viability at lower concentration (A2185 and A2352 cells): variable activity
nuclear accumulation of ERK1/2 upon TPA stimulation ([1]; A2185 and A2352 cells): inhibited
stimulated nuclear translocation of ERK1/2 ([1]; A2352, A2185 and HeLa cells): significantly reduced
